Common to all, as to type: in vivo
Series [1] relates to mice. The experiment in a line: Multiple (9 times) i.v. administrations: duration of disappearance of righting reflex in mice. The conditions noted are these: 20 mg/kg i.v. The procedure: Animals in each group were given the corresponding drug solution multiple times by the tail vein injection (i.v.) in accordance with the corresponding group, 0.1 ml per mouse each time, for 9 times of consecutive injections (the administration group mice were injected when the righting reflex was recovered). The durations of each disappearance of righting reflex were recorded, and the data was expressed as an average.

The test system of series [2] is mice. The experiment in a line: Single i.v. administration: autonomous activity of mice. To be noted: single i.v. 20 mg/kg. As for the experimental part:
Animals in each group were tested for their autonomous activities, each mouse for 10 minutes. After that, the animals in each group were given a single corresponding drug solution by the tail vein injection (i.v.) according to the corresponding group, 0.1 ml per 10 g body weight, and the autonomous activity of the mice was measured immediately after the administration, and the recording time was 50 min. Data were expressed as mean±standard deviation. Wherein, the dosage of propofol was 20 mg/kg.

For series [3], the system named is ICR mice. The experiment in a line: Disappearance of righting reflex in mice induced by drugs (single i.v. bolus). The conditions noted are these: 100 mg/kg single bolus via tail vein, male ICR mice. As for the experimental part: After ICR mice (male, 18-25 g) were fast injected with the same dose (100 mg/kg) of the test drug in a single bolus via the tail vein, the incubation period and the duration of disappearance of the righting reflex in mice were recorded. Wherein, the incubation period refers to the time from the start of administration to the disappearance of the animal's righting reflex, and the duration refers to the time from the disappearance of the righting reflex to the recovery.

For series [4], the system named is ICR mice. The experiment in a line: Effective dose and lethal dose of intravenous administration in mice. To be noted: single bolus via tail vein, male ICR mice; for minimal effective dose: Mus musculus, iv, read-out: Effective dose (lowest dose causing the righting reflex to disappear). As for the experimental part:
ICR mice (males, 18-25 g) were randomly grouped and were fast given a single bolus of different doses of test drug via the tail vein, and the lowest dose causing the righting reflex to disappear (effective dose) and the dose causing animal death (lethal dose) were recorded, and the treatment windows (lethal dose/effective dose) were calculated.

As for `CC(C)c1cccc(C(C)C)c1O` [Propofol, reference compound], the “Percentage of extension of righting reflex disappearance” value in the series on mice [1] (administration 1) is recorded as 100%; in the series with mice [1] (administration 2), 144%; in the series with mice [1] (administration 3), 259%; in the series with mice [1] (administration 4), 300%; in the series on mice [1] (administration 5), 292%; in the series with mice [1] (administration 6) it was 378%. For the same compound, the “Percentage of extension of righting reflex disappearance” value with mice [1] (administration 7) was determined as 439%; in the series with mice [1] (administration 8), 404%; with mice [1] (administration 9) it was 426%. In addition, the “righting reflex disappearance time” value was 4.0 min in the series with mice [1] (administration 1); 5.8 min with mice [1] (administration 2); 10.4 min with mice [1] (administration 3); 12.1 min in the series on mice [1] (administration 4); 11.7 min in the series on mice [1] (administration 5); 15.2 min in the series with mice [1] (administration 6). Also, the “righting reflex disappearance time” value worked out at 17.6 min in the series on mice [1] (administration 7), 16.2 min in the series on mice [1] (administration 8) and 17.1 min with mice [1] (administration 9). For the same compound, the “time after administration at which mice were awake” value in the series on mice [2] was 5 to 10 min. In addition, the “time after administration until autonomic activities basically recovered” value in the series with mice [2] came out at 15 min.
Consider `COC(=O)CC[C@@H]1N=C(c2ccncc2)c2cc(F)c(C)cc2-n2c(C)cnc21.Cc1ccc(S(=O)(=O)O)cc1` [Compound 1-5], for which, in the series with ICR mice [3], the “Duration (time from disappearance of righting reflex to recovery)” value (“Duration” for short) stood at 8.21 min and the “Incubation period (time from start of administration to disappearance of righting reflex)” value (“Incubation period” for short) was found to be 0.40 min. In addition, in the series with ICR mice [4], the minimal effective dose amounted to 60 mg/kg, the “Lethal dose (dose causing animal death)” value is on record as 320 mg/kg and the “Treatment window (lethal dose/effective dose)” value is given as 5.3.
Regarding `COC(=O)CC[C@@H]1N=C(c2ccccn2)c2cc(OC)c(C)cc2-n2c(C)cnc21.Cc1ccc(S(=O)(=O)O)cc1` [Compound 1-9], in the series on ICR mice [3], the “Duration” value amounted to 8.77 min and the “Incubation period” value is reported as 0.63 min. Besides, in the series on ICR mice [4], the minimal effective dose stood at 60 mg/kg, the “Lethal dose (dose causing animal death)” value worked out at 260 mg/kg and the “Treatment window (lethal dose/effective dose)” value is recorded as 4.3.
As for `COC(=O)CC[C@@H]1N=C(c2ccccn2)c2cc(F)c(F)cc2-n2c(C)cnc21.Cc1ccc(S(=O)(=O)O)cc1` [Compound 1-11], in the series with ICR mice [3], the “Duration” value stood at 7.28 min and the “Incubation period” value was 0.53 min. In the series with ICR mice [4], the minimal effective dose is 80 mg/kg, the “Lethal dose (dose causing animal death)” value amounted to 320 mg/kg and the “Treatment window (lethal dose/effective dose)” value was 4.
For `COC(=O)CC[C@@H]1N=C(c2ccccn2)c2cc(OC)c(F)cc2-n2c(C)cnc21.Cc1ccc(S(=O)(=O)O)cc1` [Compound 1-15], in that order: 9.02 min, 0.54 min, 60 mg/kg, 320 mg/kg and 5.3.
The corresponding values for `CCOC(=O)CC[C@@H]1N=C(c2ccccn2)c2cc(CC)c(OC)cc2-n2c(C)cnc21.Cc1ccc(S(=O)(=O)O)cc1` [Compound 1-17] are 7.24 min, 0.75 min, 80 mg/kg, 360 mg/kg and 4.5.
For `COC(=O)CC[C@@H]1N=C(c2ccccn2)c2cc(C(F)(F)F)c(C)cc2-n2c(C)cnc21.Cc1ccc(S(=O)(=O)O)cc1` [Compound 1-8], in that order: 8.60 min, 0.55 min, 40 mg/kg, 260 mg/kg and 6.5.
Regarding `CCOC(=O)CC[C@@H]1N=C(c2cccnc2)c2cc(C)c(F)cc2-n2c(C)cnc21.Cc1ccc(S(=O)(=O)O)cc1` [Compound 1-16], in the series on ICR mice [3], the “Duration” value is 9.35 min and the “Incubation period” value worked out at 0.86 min. In the series on ICR mice [4], the minimal effective dose turned out to be 40 mg/kg, the “Lethal dose (dose causing animal death)” value turned out to be 280 mg/kg and the “Treatment window (lethal dose/effective dose)” value was found to be 7.

For the origin of these results see patent US11919905B2, “Substituted benzo[f]imidazo[1,2-a][1,4]diazepines as anesthetics” (HANGZHOU ADAMERCK PHARMLABS INC., priority 2017, dated 2024).
